# Experimental data taken from PMC5614969, “High-Affinity Functional Fluorescent Ligands for Human β-Adrenoceptors” (Scientific Reports, 2017).
# Where two headings read alike, the source gives them in different places.
# Tests used:
# [1] = target: T1, β2AR (Homo sapiens, UniProt P07550); assay: cAMP FRET sensor assay, competitive displacement of isoprenaline by antagonists in HEK293 cells; assay type: cell-based
# Protocol: The culture was maintained by subculturing the cells every 4 to 5 days using the standard trypsinization procedure. Before measurements, cells were trypsinated and transferred in a 96-well glass bottom plate (MatTek Corporation; Cat. No. P96GC-1.5–5-F) to contain 10,000–30,000 cells per well in 200 µL of DMEM media. After 24 h incubation in 5% CO2 at 37 °C, the cells were washed with HBSS pH 7.2 (200 µL), and the wells were filled with 200 µL HBSS. The DMSO stock solutions of the fluorescent probes were diluted 5,000 times in HBSS and used in experiments. In the antagonist inhibition experiment, we used β1 and β2 adrenoceptor agonist isoprenaline (abcr GmbH) as a positive control causing cAMP elevation. […] The fluorescent ligand solutions of different concentrations in HBSS were premixed with the isoprenaline solution. 50 µL of a final solution was added to each well and the measurement was started upon addition and continued for 1 h in 10 min intervals between the readouts (inclusive).
# The ligands were added using an automated pipette to initiate the sensor response. FRET readout from the cAMP sensor was performed on a multiwell plate reader Spark 20 M (Tecan) at room temperature (25 °C). Fluorescence readout amplitudes were calculated from time series for different ligand concentrations, following background subtraction (media only). […] Data were derived from 3 independent experiments and each independent experiment was performed in triplicate.
# Sensor response R(CFP/FRET) was calculated using (1):1 R(CFP/FRET)=(FimTurquoise−FbkgmTurquoise)/(FiFRET−FbkgFRET) where F i ^mTurquoise – mTurquoise fluorescence intensity in the wells with cells; F bkg ^mTurquoise - mTurquoise fluorescence intensity in the control wells without cells; F i ^FRET – FRET signal intensity in the wells with cells; F bkg ^FRET – FRET signal intensity in the control wells without cells. For every result, R(CFP/FRET) ratio was normalized to the R(CFP/FRET) response of DMSO sample.
# K i ^app were calculated using the Cheng-Prusoff equation (2):2 Kiapp=IC50/[A]/EC50+1 where [A] – concentration of the isoprenaline; IC50 – fitted half maximal inhibitory concentration of labeled antagonist; EC50 – fitted half maximal response concentration of isoprenaline.
# [2] = target: T2, β2AR-YFP fusion protein (Homo sapiens, UniProt P07550); assay: Confocal imaging of living U2OS cells expressing β2AR-YFP (staining, internalization, competitive displacement, no-wash); assay type: cell-based; conditions: for Receptor internalization / Staining performance: U2OS cells expressing β2AR-YFP; for Staining performance: 610CP ligands at 1.9 µM (19) and 2.5 µM (16); for Competitive displacement: 100 nM probe (5 nM ab118171) with 10 µM unlabeled BI-167107 or carazolol, 30 min
# T2 construct: host or cells: U2OS
# Protocol: U2OS cells (ATCC) were cultured in high-glucose DMEM (Dulbecco’s Modified Eagle medium, Thermo Fisher Scientific) supplemented with GlutaMAX-1 (Thermo Fisher Scientific) and 10% fetal bovine serum (FBS) (Thermo Fisher Scientific) in a humidified 5% CO2 incubator at 37 °C. CAPAN-1 cells (ATCC) were cultured in McCoy’s 5a Medium Modified supplemented with 10% fetal bovine serum (FBS) (Thermo Fisher Scientific) in a humidified 5% CO2 atmosphere at 37 °C. Cells were split every 3–5 days or at confluence. Cells were seeded in glass bottom 12-well plates (MatTek Corporation). […] We used 200,000 cells per well, 3 µg plasmid DNA and 3 µl of Lipofectamine 2000.
# We performed imaging 48–72 h after transfection. Staining of the transfected cell was performed in Hanks’ balanced salt solution (HBSS, Lonza) without Phenol Red for 30–40 min at room temperature (to minimize internalization). Samples were washed two times with HBSS, and cells were imaged in DMEM (Thermo Fisher Scientific) supplemented with GlutaMAX-1 (Thermo Fisher Scientific) and 10% fetal bovine serum (FBS). For all staining experiments with cells, stock solutions of dyes in DMSO were used, and final DMSO content was < 0.5%. Imaging was performed on Leica SP8 (Leica Microsystems) or Abberior STED (Abberior Instruments GmbH) microscopes.
# Competitive displacement experiment was performed in living U2OS cells expressing β2AR-YFP fusion protein.
# Confocal imaging was performed on a Leica SP8 (Leica Microsystems, Mannheim, Germany) inverted confocal microscope equipped with an HC PL APO CS2 63x/1.40 Oil objective. Images were acquired using a 700 Hz bidirectional scanner, pixel size of 70 nm × 70 nm, pinhole of 95.6 µm diameter(1 AU) and frame averaging of 2.
# [3] = target: T1, β2AR; assay: TR-FRET receptor-ligand saturation binding assay, Tag-lite β2AR cells; conditions: for binding selectivity β2AR over β1AR: TR-FRET assay, ratio of Kd app; for Kd: β2AR, 2 h at room temperature, read-out: Kd app
# Protocol: To confirm whether the affinity of carazolol-KK114 (24) is sufficient for the intended imaging experiments and to evaluate its β2/β1AR selectivity, we performed a TR-FRET assay in Tag-lite β1AR or β2AR transfected cells (Cisbio) labeled with Tb^3+ cryptate (Lumi4-Tb) (Fig. 3c)[39]. […] (Fig. 3d, Supplementary Fig. 5b). The high affinities of both fluorescent ligands enabled the imaging experiments.
# K d determination was performed on Tag-lite β1AR (Cisbio, Cat. No. C1TT1BETA1) or β2AR (Cisbio, Cat. No. C1TT1BETA2) Tb^3+ cryptate labeled transfected cells. The β1AR or β2AR cells labeled with SNAP-Terbium interact with the specific ligand labeled with the corresponding fluorophore. The fraction of bound ligand is proportional to the FRET signal. Donor Tb^3+ cryptate: exc. 340 nm, em. 490 nm, 546 nm, 583 nm, 620 nm; acceptor KK114: exc. 630 nm, em. 655 nm. The cells were thawed and suspended in 4.5 ml Tag-lite buffer (Cisbio, Cat. No. LABMED) according to the product information and transferred to half-area white polystyrene 96 well plates (Sigma, Cat. No. CLS3693) by 20 µl per well. 20 µl of a fluorescent probe or control compound in Tag-lite buffer was added to each well and incubated for 2 h at room temperature (20 °C) before readout. FRET readout was performed on a multiwell plate reader Spark 20 M (Tecan) at room temperature. […] All probe and control compound dilutions were prepared in DMSO, so that the final DMSO concentration was kept constant throughout the titration series. The ratio of the acceptor and donor emission signals was calculated for each individual well using equation (3):3 Ratio=Signal655nm−BackgroundSignal/Signal620nm−BackgroundSignal
# Luminescence background signal was measured in wells containing 40 µl of Tag-lite buffer only. Specific binding was calculated by subtracting nonspecific binding ratio from total binding ratio at each fluorescent ligand concentration. K d ^app is determined by fitting data using GraphPad Prism 6 to one site specific binding with Hill slope equation (4):4 Specificsingalratio=A∗[probe]^h/(Kdapp)^h+[probe]^h
# A is amplitude of specific signal ratio, [probe] - probe concentration, K d ^app - the ligand concentration needed to achieve a half-maximum binding at equilibrium, h - the Hill slope.
# T1 sequence (P07550 whole entry): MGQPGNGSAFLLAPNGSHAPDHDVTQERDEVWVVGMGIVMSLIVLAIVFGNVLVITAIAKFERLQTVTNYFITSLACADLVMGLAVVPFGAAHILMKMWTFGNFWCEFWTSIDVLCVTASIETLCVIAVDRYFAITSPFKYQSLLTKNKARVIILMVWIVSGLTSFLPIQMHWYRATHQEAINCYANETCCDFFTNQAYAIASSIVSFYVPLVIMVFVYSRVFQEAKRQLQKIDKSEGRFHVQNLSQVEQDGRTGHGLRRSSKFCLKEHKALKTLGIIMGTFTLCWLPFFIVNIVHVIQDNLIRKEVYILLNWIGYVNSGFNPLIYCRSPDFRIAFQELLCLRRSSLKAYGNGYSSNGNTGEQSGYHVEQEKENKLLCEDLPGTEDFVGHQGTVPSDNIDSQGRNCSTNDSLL
# T2 sequence (P07550 whole entry, the tested form may be a part): as the sequence (P07550 whole entry) above
SMILES,"IC50 ([1]; 17 nM isoprenaline, 30 min incubation time, read-out: IC50) [nM]","Ki ([1]; Cheng-Prusoff from IC50 right after addition of ligands, 17 nM isoprenaline, read-out: Ki app (mean ± SD)) [nM]","IC50 ([1]; displacement of 17 nM isoprenaline, readout immediately after addition of ligands (0 min), read-out: IC50 (mean ± SD)) [nM]","Ki ([1]; measurement 30 min after addition of the ligands, read-out: Ki app) [nM]",Receptor internalization [2],Staining performance [2],Receptor internalization ([2]; listed as carazolol-KK114 (24)),"confocal staining at all tested concentrations ([2]; U2OS β2AR-YFP, 5 nM, 100 nM, 250 nM, 40 min)",Competitive displacement ([2]; U2OS β2AR-YFP),"Competitive displacement ([2]; U2OS β2AR-YFP, listed as Carazalol-KK114 (24))",binding selectivity β2AR over β1AR [3],Kd [3] [nM],"confocal staining at 100 nM ([2]; U2OS β2AR-YFP, 100 nM, 40 min, room temperature, washed)","confocal staining at 250 nM ([2]; U2OS β2AR-YFP, 250 nM, 40 min, room temperature, washed)"
CN(CCC(=O)NCCOCCOCCOCCOCCC(=O)NCCC(C)(C)NCC(O)COc1cccc2[nH]c3ccccc3c12)C(=O)c1c(F)c(F)c(F)c(F)c1C1=c2cc3c4c(c2Oc2c1cc1c5c2CCCN5C(C)(C)C=C1CS(=O)(=O)O)CCC[N+]=4C(C)(C)C=C3CS(=O)(=O)[O-] (stereo not shown) [Carazolol-KK114 (24)],444 ± 79,162 ± 76,2450 ± 494,29.3 ± 15,Weak,Strong,did not change,specific staining,Yes,no background fluorescence,three-fold,14.7 ± 0.9,,
Cc1c(CCC(=O)NCCOCCOCCNC(=O)CCN(C)C(=O)c2c(F)c(F)c(F)c(F)c2C2=c3cc4c5c(c3Oc3c2cc2c6c3CCCN6C(C)(C)C=C2CS(=O)(=O)O)CCC[N+]=5C(C)(C)C=C4CS(=O)(=O)[O-])cccc1CC(C)(C)NCC(O)c1ccc(O)c2c1OCC(=O)N2 (stereo not shown) [BI-PEG-KK114 (18)],,,,,triggered extensive βAR internalization and Yes,Strong,,,no signal and Yes,,nine-fold,7.2 ± 0.6,performed well,performed well
